Tests used:
Test in all cases: Test D controlled growth environment herbicide test, pre- and postemergence
Format in all cases: in vivo
[1] = system: buckwheat, wild (wild buckwheat, Polygonum convolvulus)
Text: (§1) Seeds of plant species selected from bluegrass (annual bluegrass, Poa annua), blackgrass (Alopecurus myosuroides), Canada thistle (Cirsium arvense), canarygrass (Phalaris minor), chickweed (common chickweed, Stellaria media), geranium, cutleaf (cutleaf geranium, Geranium dissectum), galium (catchweed bedstraw, Galium aparine), bromegrass, downy (downy bromegrass, Bromus tectorum), field poppy (Papaver rhoeas), field violet (Viola arvensis), foxtail, green (green foxtail, Setaria viridis), deadnettle (henbit deadnettle, Lamium amplexicaule), ryegrass, Italian (Italian ryegrass, Lolium multiflorum), kochia (Kochia scoparia), lambsquarters (Chenopodium album), oilseed rape (Brassica napus), pigweed (Amaranthus retroflexus), chamomile (scentless chamomile, Matricaria inodora), Russian thistle (Salsola kali), speedwell (bird's-eye speedwell, Veronica persica), barley, spring (spring barley, Hordeum vulgare), wheat, spring (spring wheat, Triticum aestivum), buckwheat, wild (wild buckwheat, Polygonum convolvulus), mustard, wild (wild mustard, Sinapis arvensis), oat, wild (wild oat, Avena fatua), radish, wild (wild radish, Raphanus raphanistrum), windgrass (Apera spica-venti), barley, winter (winter barley, Hordeum vulgare), and wheat, winter (winter wheat, Triticum aestivum) were planted into a silt loam soil and treated preemergence with test chemicals formulated in a non-phytotoxic solvent mixture which included a surfactant.
(§2) At the same time, these species were planted in pots containing Redi-Earth® planting medium (Scotts Company, 14111 Scottslawn Road, Marysville, Ohio 43041) comprising spaghnum peat moss, vermiculite, wetting agent and starter nutrients and treated with postemergence applications of the test chemicals formulated in the same manner. Plants ranged in height from 2 to 18 cm (1- to 4-leaf stage). Treated plants and controls were maintained in a controlled growth environment for 14 to 21 d after which time all species were compared to controls and visually evaluated. Plant response ratings, summarized in Table D, are based on a scale of 0 to 100 where 0 is no effect and 100 is complete control. A dash (-) response means no test result.

[2] = system: oilseed rape (Brassica napus)
Text: as §1, §2

[3] = system: canarygrass (Phalaris minor)
Text: as §1, §2

[4] = system: field poppy (Papaver rhoeas)
Text: as §1, §2

[5] = system: foxtail, green (green foxtail, Setaria viridis)
Text: as §1, §2

[6] = system: pigweed (Amaranthus retroflexus)
Text: as §1, §2

[7] = system: bluegrass (annual bluegrass, Poa annua)
Text: as §1, §2

[8] = system: barley, spring (spring barley, Hordeum vulgare)
Text: as §1, §2

[9] = system: mustard, wild (wild mustard, Sinapis arvensis)
Text: as §1, §2

[10] = system: oat, wild (wild oat, Avena fatua)
Text: as §1, §2

[11] = system: barley, winter (winter barley, Hordeum vulgare)
Text: as §1, §2

[12] = system: galium (catchweed bedstraw, Galium aparine)
Text: as §1, §2

[13] = system: wheat, spring (spring wheat, Triticum aestivum)
Text: as §1, §2

[14] = Postemergence, 31 g ai/ha, scale 0 to 100 (0 no effect, 100 complete control)
[15] = Postemergence, 125 g ai/ha, visual rating on scale 0 (no effect) to 100 (complete control), 14 to 21 d
[16] = Postemergence, 250 g ai/ha, scale 0 to 100 (0 no effect, 100 complete control)
[17] = Preemergence, 62 g ai/ha, scale 0 to 100 (0 no effect, 100 complete control)
[18] = Preemergence, 125 g ai/ha, scale 0 to 100 (0 no effect, 100 complete control)
[19] = Preemergence, 250 g ai/ha, scale 0 to 100, 0 no effect, 100 complete control
[20] = postemergence, 62 g ai/ha, scale 0 to 100, 0 no effect, 100 complete control

## COC(=O)Oc1c(C)nn(C)c(=O)c1-c1c(C)sc2ccc(C)cc12 [Compound 80]
[1]; [14]
  Buckwheat, Wild plant response rating: 100
[1]; [15]
  Plant response rating, Buckwheat, Wild: 100
[1]; [16]
  Plant response rating, Buckwheat, Wild: 100
[1]; Preemergence, 31 g ai/ha
  Plant response rating (scale of 0 to 100), Buckwheat, Wild: 0
[1]; [17]
  Plant response rating, Buckwheat, Wild: 25
[1]; [18]
  Plant response rating, Buckwheat, Wild: 20
[1]; [19]
  Plant response rating, Buckwheat, Wild: 20
[1]; [20]
  Plant response rating, Buckwheat, Wild: 100
[2]; [14]
  Oilseed Rape plant response rating: 15
[2]; [15]
  Plant response rating, Oilseed Rape: 65
[2]; [16]
  Plant response rating, Oilseed Rape: 75
[2]; Preemergence, 31 g ai/ha
  Plant response rating (scale of 0 to 100), Oilseed Rape: 35
[2]; [17]
  Plant response rating, Oilseed Rape: 35
[2]; [18]
  Plant response rating, Oilseed Rape: 35
[2]; [19]
  Plant response rating, Oilseed Rape: 40
[2]; [20]
  Plant response rating, Oilseed Rape: 55
[3]; [14]
  Canarygrass plant response rating: 55
[3]; [15]
  Plant response rating, Canarygrass: 85
[3]; [16]
  Plant response rating, Canarygrass: 90
[3]; Preemergence, 31 g ai/ha
  Plant response rating (scale of 0 to 100), Canarygrass: 85
[3]; [17]
  Plant response rating, Canarygrass: 90
[3]; [18]
  Plant response rating, Canarygrass: 90
[3]; [19]
  Plant response rating, Canarygrass: 100
[3]; [20]
  Plant response rating, Canarygrass: 80
[4]; [14]
  Field Poppy plant response rating: 60
[4]; [15]
  Plant response rating, Field Poppy: 100
[4]; [16]
  Plant response rating, Field Poppy: 100
[4]; Preemergence, 31 g ai/ha
  Plant response rating (scale of 0 to 100), Field Poppy: 90
[4]; [17]
  Plant response rating, Field Poppy: 100
[4]; [18]
  Plant response rating, Field Poppy: 100
[4]; [19]
  Plant response rating, Field Poppy: 100
[4]; [20]
  Plant response rating, Field Poppy: 80
[5]; [14]
  Foxtail, Green plant response rating: 70
[5]; [15]
  Plant response rating, Foxtail, Green: 90
[5]; [16]
  Plant response rating, Foxtail, Green: 95
[5]; Preemergence, 31 g ai/ha
  Plant response rating (scale of 0 to 100), Foxtail, Green: 20
[5]; [17]
  Plant response rating, Foxtail, Green: 80
[5]; [18]
  Plant response rating, Foxtail, Green: 100
[5]; [19]
  Plant response rating, Foxtail, Green: 100
[5]; [20]
  Plant response rating, Foxtail, Green: 90
[6]; [14]
  Pigweed plant response rating: 100
[6]; [15]
  Plant response rating, Pigweed: 100
[6]; [16]
  Plant response rating, Pigweed: 100
[6]; Preemergence, 31 g ai/ha
  Plant response rating (scale of 0 to 100), Pigweed: 100
[6]; [17]
  Plant response rating, Pigweed: 100
[6]; [18]
  Plant response rating, Pigweed: 100
[6]; [19]
  Plant response rating, Pigweed: 100
[6]; [20]
  Plant response rating, Pigweed: 100
[7]; [14]
  Bluegrass plant response rating: 15
[7]; [15]
  Plant response rating, Bluegrass: 35
[7]; [16]
  Plant response rating, Bluegrass: 45
[7]; Preemergence, 31 g ai/ha
  Plant response rating (scale of 0 to 100), Bluegrass: 20
[7]; [17]
  Plant response rating, Bluegrass: 55
[7]; [18]
  Plant response rating, Bluegrass: 75
[7]; [19]
  Plant response rating, Bluegrass: 75
[7]; [20]
  Plant response rating, Bluegrass: 35
[8]; [14]
  Barley, Spring plant response rating: 0
[8]; [15]
  Plant response rating, Barley, Spring: 15
[8]; [16]
  Plant response rating, Barley, Spring: 25
[8]; Preemergence, 31 g ai/ha
  Plant response rating (scale of 0 to 100), Barley, Spring: 0
[8]; [17]
  Plant response rating, Barley, Spring: 0
[8]; [18]
  Plant response rating, Barley, Spring: 5
[8]; [19]
  Plant response rating, Barley, Spring: 0
[8]; [20]
  Plant response rating, Barley, Spring: 10
[9]; [14]
  Mustard, Wild plant response rating: 35
[9]; [15]
  Plant response rating, Mustard, Wild: 70
[9]; [16]
  Plant response rating, Mustard, Wild: 100
[9]; Preemergence, 31 g ai/ha
  Plant response rating (scale of 0 to 100), Mustard, Wild: 0
[9]; [17]
  Plant response rating, Mustard, Wild: 0
[9]; [18]
  Plant response rating, Mustard, Wild: 0
[9]; [19]
  Plant response rating, Mustard, Wild: 0
[9]; [20]
  Plant response rating, Mustard, Wild: 50
[10]; [14]
  Oat, Wild plant response rating: 95
[10]; [15]
  Plant response rating, Oat, Wild: 100
[10]; [16]
  Plant response rating, Oat, Wild: 100
[10]; Preemergence, 31 g ai/ha
  Plant response rating (scale of 0 to 100), Oat, Wild: 85
[10]; [17]
  Plant response rating, Oat, Wild: 90
[10]; [18]
  Plant response rating, Oat, Wild: 90
[10]; [19]
  Plant response rating, Oat, Wild: 95
[10]; [20]
  Plant response rating, Oat, Wild: 98
[11]; [14]
  Barley, Winter plant response rating: 0
[11]; [15]
  Plant response rating, Barley, Winter: 5
[11]; [16]
  Plant response rating, Barley, Winter: 15
[11]; Preemergence, 31 g ai/ha
  Plant response rating (scale of 0 to 100), Barley, Winter: 0
[11]; [17]
  Plant response rating, Barley, Winter: 0
[11]; [18]
  Plant response rating, Barley, Winter: 15
[11]; [19]
  Plant response rating, Barley, Winter: 45
[11]; [20]
  Plant response rating, Barley, Winter: 0
[12]; [14]
  Galium plant response rating: 90
[12]; [15]
  Plant response rating, Galium: 95
[12]; [16]
  Plant response rating, Galium: 100
[12]; Preemergence, 31 g ai/ha
  Plant response rating (scale of 0 to 100), Galium: 25
[12]; [17]
  Plant response rating, Galium: 40
[12]; [18]
  Plant response rating, Galium: 80
[12]; [19]
  Plant response rating, Galium: 90
[12]; [20]
  Plant response rating, Galium: 95
[13]; [14]
  Wheat, Spring plant response rating: 0
[13]; [15]
  Plant response rating, Wheat, Spring: 15
[13]; [16]
  Plant response rating, Wheat, Spring: 30
[13]; Preemergence, 31 g ai/ha
  Plant response rating (scale of 0 to 100), Wheat, Spring: 0
[13]; [17]
  Plant response rating, Wheat, Spring: 0
[13]; [18]
  Plant response rating, Wheat, Spring: 25
[13]; [19]
  Plant response rating, Wheat, Spring: 35
[13]; [20]
  Plant response rating, Wheat, Spring: 10

From patent US10597388B2, “Pyridazinone herbicides” (FMC CORPORATION, priority 2014, dated 2020)
